Assay results reported in US8067408B2, “Dual pharmacophores—PDE4-muscarinic antagonistics” (priority 2008, dated 2011).

Test system: M1, M2 (w/Gqi5) and M3 ACh receptors stably expressed in CHO cells
Test: Calcium mobilization (FLIPR) IC50 determination for antagonists of ACh induced muscarinic receptor activation
Assay type: cell-based, human
Conditions: EC80 concentration of ACh, active if IC50 of between 33 uM and 10 nM or less, receptor subtype (M1/M2/M3) not specified
Excerpt: Calcium Mobilization Studies (FLIPR)
Studies to determine the effectiveness of antagonists to cause blockade of functional intracellular calcium fluxes following agonist (ACh) treatment of cloned human receptors.
This system is used for characterizations of antagonist-receptor interactions using four distinct variations of the FLIPR methodology: (a) potency: IC50 determination, (b) potency: pA2 determination, (c) reversibility of antagonist-receptor interaction, or (d) confirmation of no functional agonist activity. • Cell Source The human M1-M3 receptors are cloned and stably expressed in Chinese Hamster Ovary (CHO) cells. The M2 receptors are co-expressed with the chimeric G protein, Gqi5. • Cell lines: M1 stable: Biocat #1044; M2+Gqi5 stable: Biocat #95663; M3 stable: Biocat #1049 • Method of Culture: CHO-M1, CHO-Gqi5-M2 and CHO-M3 cells are cultured to confluence at 37° C. in a humidified incubator with 5% CO2/95% air. CHO-M1 and CHO-M3 are cultured in Alpha MEM with nucleosides and L-glutamine and 10% fetal calf serum. […] The emitted fluorescence from all 96 wells is measured simultaneously using a cooled CCD camera. Data points are collected every second. Maximal change in emission from each well after simultaneous addition of agonist or compound to each of the 96 wells is then exported to an excel spreadsheet. […] Experimental Protocols: • Cell plating: A microtiter plate based calcium mobilization FLIPR (Fluorometric Imaging Plate Reader, Molecular Devices, Sunnyvale Calif., [Schroeder KS, Neagle, BD. FLIPR: a new instrument for accurate, high throughput optical screening. J. Biomol. Screen. 1996; 1:75.]) assay is used for the functional characterization of compounds against M1, M2 (w/Gqi5) and M3 ACh receptors stably expressed in CHO cells. […] The basal emission fluorescence is measured, then the cellular response to an EC80 concentration of ACh (3.3 nM against M1, 10 nM against M2 and 1.0 nM against M3) prepared in KRH assay buffer with 0.1% BSA (no gelatin), is monitored in FLIPR for 90 seconds and then 50 μL of 100 μM ATP (assay concentration of 20 μM) is added to check cell viability (H. M. Sarau et al, 1999. Mol. Pharmacol. 56, 657-663). […]

Q: For `CCc1nc2c(cnn2CC)c(NC2CCOCC2)c1CNC(=O)c1cccc(C(=O)NCc2ccc(F)c(-c3cccc(CNc4ccncc4)c3)c2)c1` [Example 311, N-{[1,6-Diethyl-4-(tetrahydro-2H-pyran-4-ylamino)-1H-pyrazolo[3,4-b]pyridin-5-yl]methyl}-N′-({6-fluoro-3′-[(4-pyridinylamino)methyl]-3-biphenylyl}methyl)-1,3-benzenedicarboxamide], which “IC50: compound pretreatment concentration which inhibits 50% of the ACh induced response” value is on record?
A: most active
